Data on one compound can be found in patent publication US8383139B2 (Bayer CropScience AG, priority 2008, dated 2013).

One data set has as its system Sphaerotheca fuliginea. The data set is described as follows: Sphaerotheca test (cucumber)/protective. The format is in vivo. The settings on record: Podosphaera fuliginea, 168 h, 500 ppm active substance, protective, evaluation 7 days after inoculation, read-out: degree of effectiveness. The gist of the method: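 Young cucumber plants sprayed at the stated rate with active substance in DMF/alkylaryl polyglycol ether emulsifier diluted in water, then inoculated with Sphaerotheca fuliginea spores one day later. Kept in greenhouse at 70% relative humidity, 23° C.; scored 7 days post-inoculation as % efficacy (0% = untreated control, 100% = no infestation).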

The nature of data set [1]: log P by HPLC on reversed-phase columns (C 18), EEC Directive 79/831 Annex V.A8. The note with it: reversed-phase C18 HPLC column, pH 2.3, [a] HPLC, acid region pH 2.3, 0.1% aqueous phosphoric acid and acetonitrile; read-out: log p. The format is physicochemical.
The test system of the next data set is Puccinia triticina. As to the kind of experiment: Puccinia triticina test (wheat)/protective. In kind it is in vivo. The settings on record: 192 h, 500 ppm active substance, protective, evaluation 8 days after inoculation, read-out: degree of effectiveness. In short, it runs like this: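 Protective test: young wheat plants sprayed with compound (in N,N-dimethylacetamide/emulsifier, diluted in water) at the stated rate, dried, then inoculated with Puccinia triticina spores; 48 h at 20 °C, 100% RH, then greenhouse ~20 °C, ~80% RH. Efficacy scored 8 days post-inoculation, 0% = untreated control, 100% = no infestation.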

Another data set has as its system Phakopsora pachyrhizi. As to the kind of experiment: Phakopsora test (soybean)/protective. The format is in vivo. The note with it: 264 h, 500 ppm active substance, protective, evaluation 11 days after inoculation, read-out: degree of effectiveness. The procedure: • Solvent: 28.5 parts by weight of acetone • Emulsifier: 1.5 parts by weight of polyoxyethylene alkylphenyl ether (polyoxy-ethylene (16) tristearylphenyl ether)
To prepare a suitable active substance composition, 1 part by weight of active substance is mixed with the given amounts of solvent and emulsifier and the concentrate is diluted to the desired concentration using water.
For the testing of protective effectiveness, young plants are sprayed with the active substance composition at the application rate given. One day after the spraying, the plants are sprayed with an aqueous suspension of spores of Phakopsora pachyrhizi. The plants remain in a greenhouse at 20° C. and 80% relative humidity.
Evaluation is carried out 11 days after the inoculation. In this connection, 0% means a degree of effectiveness corresponding to that of the control, while a degree of effectiveness of 100% means that no infestation is observed.

The test system of another data set is Alternaria solani. As to the kind of experiment: Alternaria test (tomato)/protective. In kind it is in vivo. The settings on record: 72 h, 100 ppm active substance, protective, evaluation 3 days after inoculation, read-out: degree of effectiveness.
Another data set has as its system Uromyces appendiculatus. As to the kind of experiment: Uromyces test (beans)/protective. The format is in vivo. The settings on record: 240 h, 100 ppm active substance, protective, evaluation 10 days after inoculation, read-out: degree of effectiveness. In short, it runs like this: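 Young bean plants were sprayed with compound (acetone/dimethylacetamide/emulsifier concentrate diluted in water), dried, then inoculated with U. appendiculatus spores. They were held 1 day at ~20 °C, 100% RH, then kept in a greenhouse at ~21 °C, ~90% RH. Efficacy was scored at 10 days post-inoculation (0% = control, 100% = no infestation).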

The next data set deals with Septoria tritici. As to the kind of experiment: Septoria tritici test (wheat)/protective. The note with it: Zymoseptoria tritici, 504 h, 500 ppm active substance, protective, evaluation 21 days after inoculation, read-out: degree of effectiveness. The format is in vivo. The gist of the method: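 Young wheat plants sprayed with compound in dimethylacetamide/emulsifier-water, then inoculated with S. tritici spores once dry. Kept 48 h at 20 °C/100% RH, 60 h at 15 °C/100% RH, then greenhouse ~15 °C/80% RH. Scored 21 days post-inoculation as % efficacy versus untreated control.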

Where only a bound is given, the exact number is not on record here.

Consider `CCN(C)C=Nc1cc(C)c(Oc2nc(Cc3ccc(F)cc3F)ns2)cc1C` [Example 52, N′-(4-{[3-(2,4-difluorobenzyl)-1,2,4-thiadiazol-5-yl]oxy}-2,5-dimethylphenyl)-N-ethyl-N-methylimidoformamide], for which the pest or weed control at 500 ppm is at least 70% in the data set with Sphaerotheca fuliginea, at least 70% in the data set with Puccinia triticina, at least 80% in the data set on Phakopsora pachyrhizi and at least 70% in the data set with Septoria tritici. Also, the chromatographic logP in data set [1] came out at 1.94. In addition, the pest or weed control at 100 ppm with Alternaria solani and in the data set on Uromyces appendiculatus was at least 70% in each case.
